Publication PMC10726358 (Journal of Medicinal Chemistry, 2023)

Tests used:
BRD4 BD1 = format: binding, human; conditions: TR-FRET
Protocol: As a strategic decision, every compound synthesized across all of GSK’s bromodomain research projects was tested in both a BRD4 BD1 and a BRD4 BD2 TR-FRET assay as part of tier 1 data generation. […] LipE is a straightforward, yet powerful metric for medicinal chemistry teams to normalize potency relative to lipophilicity, a critical factor both for parameters of the human dose equation and also for promiscuity.[43],[44] To aid interpretation, diagonal lines representing different LipE values are shown, with the most desirable space found toward the top left-hand area of the plot representing molecules with the comparatively highest potency per unit of lipophilicity.
(§1) All TR-FRET and hWB cytokine assays have been described previously.[54]

CAD aqueous solubility = assay: CAD aqueous solubility
Protocol: To understand cellular target engagement, 21 was tested in an LPS-stimulated hWB assay measuring inhibition of the inflammatory mediator MCP-1 secretion.
(§2) ChromatographicLogD at pH 7.4, artificial membrane permeability, CLND solubility, and CAD solubility were measured using published protocols.[55]

BRD2 BD2 = molecular target: T1, BRD2 BD2 (Homo sapiens, UniProt P25440); assay: BRD2 BD2 TR-FRET assay; format: binding
T1 construct: BRD2 BD2; purchased DiscoverX
Protocol: (§3) The BRD4 BD1/BD2 TR-FRET assay had been used routinely for this optimization work, and in order to better understand the BET BD1 domain selectivity profile, 31 was tested in TR-FRET BRD2, BRD3, and BRDT assays.
as §1

BRD3 BD1 [1] = molecular target: T2, BRD3 BD1 (Homo sapiens, UniProt Q15059); assay: BRD3 BD1 TR-FRET assay; format: binding
T2 construct: BRD3 BD1; purchased DiscoverX
Protocol: as §3, §1

BRD3 BD1 [2] = molecular target: T2, BRD3 BD1; assay: BROMOscan BRD3 BD1; format: binding
Protocol: as §3
(§4) [52] BROMOscan recombinant protein binding assays were carried out at DiscoverX. (accessed April 4, 2023).

BRPF1 = molecular target: T3, BRPF1 (Homo sapiens, UniProt P55201); assay: BROMOscan BRPF1; format: binding
T3 construct: ≥2000-fold selectivity over all 20 non-BET bromodomains tested; purchased DiscoverX
Protocol: as §3, §4

CREBBP = molecular target: T4, CREBBP (Homo sapiens, UniProt Q92793); assay: BROMOscan CREBBP; format: binding
T4 construct: ≥2000-fold selectivity over all 20 non-BET bromodomains tested; purchased DiscoverX
Protocol: as §3, §4

ATAD2A = molecular target: T5, ATAD2A (Homo sapiens, UniProt Q6PL18); assay: BROMOscan ATAD2A; format: binding
T5 construct: ≥2000-fold selectivity over all 20 non-BET bromodomains tested; purchased DiscoverX
Protocol: as §3, §4

BRD8 BD2 = molecular target: T6, BRD8 BD2 (Homo sapiens, UniProt Q9H0E9); assay: BROMOscan BRD8 BD2; format: binding
T6 construct: BRD8 BD2; purchased DiscoverX
Protocol: as §3, §4

PBRM1 BD2 = molecular target: T7, PBRM1 BD2 (Homo sapiens, UniProt Q86U86); assay: BROMOscan PBRM1 BD2; format: binding
T7 construct: PBRM1 BD2; purchased DiscoverX
Protocol: as §3, §4

PBRM1 BD5 = molecular target: T8, PBRM1 BD5 (Homo sapiens, UniProt Q86U86); assay: BROMOscan PBRM1 BD5; format: binding
T8 construct: PBRM1 BD5; purchased DiscoverX
Protocol: as §3, §4

SMARCA4 = molecular target: T9, SMARCA4 (Homo sapiens, UniProt P51532); assay: BROMOscan SMARCA4; format: binding
T9 construct: ≥2000-fold selectivity over all 20 non-BET bromodomains tested; purchased DiscoverX
Protocol: as §3, §4

[3] = Artificial membrane permeability assay; conditions: PAMPA
Protocol: as §3, §2

[4] = test system: 12 multiplex human primary-cell-based assays; assay: BioMAP Diversity PLUS platform
Protocol: The X-axis lists the quantitative protein-based biomarker readouts measured in each system. The Y-axis represents a log-transformed ratio of the biomarker readouts for the drug-treated sample (n = 1) over vehicle controls (n ≥ 6). […] Biomarker key activities are described as modulated if these activities increase in some systems but decrease in others.
31 was added 1 h before stimulation of the cells and was present during the entire incubation period of the assays.

5-HT1B = molecular target: T10, 5-HT1B (Homo sapiens, UniProt P28222); assay: Cross screening: 5-HT1B Agonist; format: biochemical
T10 construct: purchased GSK enhanced cross-screening panel (in-house)

Adenosine A2a = molecular target: T11, Adenosine A2a (Homo sapiens, UniProt P29274); assay: Cross screening: Adenosine A2a Human Agonist; format: biochemical
T11 construct: purchased GSK enhanced cross-screening panel (in-house)

M2 (CHRM2) = molecular target: T12, M2 (CHRM2) (Homo sapiens, UniProt P08172); assay: Cross screening: M2 (CHRM2) Human Ag; format: biochemical
T12 construct: purchased GSK enhanced cross-screening panel (in-house)

CB1 = molecular target: T13, CB1 (Homo sapiens, UniProt P21554); assay: Cross screening: CB1 Agonist; format: biochemical
T13 construct: purchased GSK enhanced cross-screening panel (in-house)

5-HT2A [5] = molecular target: T14, 5-HT2A (Homo sapiens, UniProt P28223); assay: Cross screening: 5-HT2A Agonist; format: biochemical
T14 construct: purchased GSK enhanced cross-screening panel (in-house)

[6] = molecular target: T15, Aryl Hydrocarbon Receptor (Homo sapiens, UniProt P35869); assay: Cross screening: Aryl Hydrocarbon Receptor; format: biochemical
T15 construct: purchased GSK enhanced cross-screening panel (in-house)

Alpha 1 nAChR = molecular target: T16, Alpha 1 nAChR (Homo sapiens, UniProt P02708+P07510+Q07001); assay: Cross screening: Alpha 1 nAChR Agonist; format: biochemical
T16 construct: purchased GSK enhanced cross-screening panel (in-house)

Kv1.5 (KCNA5) = molecular target: T17, Kv1.5 (KCNA5) (Homo sapiens, UniProt P22460); assay: Cross screening: Kv1.5 (KCNA5) blocker; format: biochemical
T17 construct: purchased GSK enhanced cross-screening panel (in-house)

hCav1_2 = molecular target: T18, hCav1_2 (Homo sapiens, UniProt Q13936); assay: Cross screening: hCav1_2 Blocker; format: biochemical
T18 construct: purchased GSK enhanced cross-screening panel (in-house)

SERT = molecular target: T19, SERT (Homo sapiens, UniProt P31645); assay: Cross screening: SERT blocker; format: biochemical
T19 construct: purchased GSK enhanced cross-screening panel (in-house)

5-HT3 = molecular target: T20, 5-HT3 (Homo sapiens, UniProt P46098); assay: Cross screening: 5-HT3 antagonist; format: biochemical
T20 construct: purchased GSK enhanced cross-screening panel (in-house)

Alpha 1B = molecular target: T21, Alpha 1B (Homo sapiens, UniProt P35368); assay: Cross screening: Alpha 1B antagonist; format: biochemical
T21 construct: purchased GSK enhanced cross-screening panel (in-house)

Histamine 1 = molecular target: T22, Histamine 1 (Homo sapiens, UniProt P35367); assay: Cross screening: Histamine 1 antagonist; format: biochemical
T22 construct: purchased GSK enhanced cross-screening panel (in-house)

5-HT2A [7] = molecular target: T14, 5-HT2A; assay: Cross screening: 5-HT2A antagonist; format: biochemical
BET BD1 = assay: BET family BD1/BD2 profiling (TR-FRET, BROMOscan); format: binding, human
Protocol: as §3, §1, §4

hERG = hERG (Homo sapiens, UniProt Q12809); assay: Cross screening: hERG blocker
PXR = PXR (Homo sapiens, UniProt O75469); assay: Cross screening: PXR Human Agonist

T2 sequence (Q15059 34-140 limits assumed): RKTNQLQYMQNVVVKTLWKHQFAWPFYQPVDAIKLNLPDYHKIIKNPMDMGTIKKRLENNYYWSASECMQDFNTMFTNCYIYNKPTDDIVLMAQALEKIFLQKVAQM
T14 sequence (P28223 whole entry): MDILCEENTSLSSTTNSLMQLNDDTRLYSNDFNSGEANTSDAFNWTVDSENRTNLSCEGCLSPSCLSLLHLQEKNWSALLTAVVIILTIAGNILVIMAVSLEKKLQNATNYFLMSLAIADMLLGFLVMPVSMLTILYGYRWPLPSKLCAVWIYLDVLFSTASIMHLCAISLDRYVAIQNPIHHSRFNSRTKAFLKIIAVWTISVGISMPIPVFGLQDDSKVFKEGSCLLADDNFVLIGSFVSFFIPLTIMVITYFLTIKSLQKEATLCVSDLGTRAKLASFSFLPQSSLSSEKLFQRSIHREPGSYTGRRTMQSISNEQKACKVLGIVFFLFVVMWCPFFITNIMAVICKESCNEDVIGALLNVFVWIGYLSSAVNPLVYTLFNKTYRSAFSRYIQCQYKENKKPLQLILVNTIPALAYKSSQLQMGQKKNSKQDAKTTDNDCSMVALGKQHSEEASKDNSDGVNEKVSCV
T13 sequence (P21554 whole entry): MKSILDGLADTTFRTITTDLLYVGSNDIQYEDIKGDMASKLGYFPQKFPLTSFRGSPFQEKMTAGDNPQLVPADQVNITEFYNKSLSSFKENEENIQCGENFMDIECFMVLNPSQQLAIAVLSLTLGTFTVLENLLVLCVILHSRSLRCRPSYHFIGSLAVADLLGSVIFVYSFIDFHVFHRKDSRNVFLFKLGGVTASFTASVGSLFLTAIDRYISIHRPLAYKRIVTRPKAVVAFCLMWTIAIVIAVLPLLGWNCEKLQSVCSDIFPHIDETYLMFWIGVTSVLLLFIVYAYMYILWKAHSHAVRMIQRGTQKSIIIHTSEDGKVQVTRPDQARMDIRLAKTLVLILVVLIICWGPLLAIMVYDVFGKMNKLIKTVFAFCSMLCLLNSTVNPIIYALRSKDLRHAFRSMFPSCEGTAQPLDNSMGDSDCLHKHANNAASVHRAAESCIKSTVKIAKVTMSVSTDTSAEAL
T15 sequence (P35869 11-848): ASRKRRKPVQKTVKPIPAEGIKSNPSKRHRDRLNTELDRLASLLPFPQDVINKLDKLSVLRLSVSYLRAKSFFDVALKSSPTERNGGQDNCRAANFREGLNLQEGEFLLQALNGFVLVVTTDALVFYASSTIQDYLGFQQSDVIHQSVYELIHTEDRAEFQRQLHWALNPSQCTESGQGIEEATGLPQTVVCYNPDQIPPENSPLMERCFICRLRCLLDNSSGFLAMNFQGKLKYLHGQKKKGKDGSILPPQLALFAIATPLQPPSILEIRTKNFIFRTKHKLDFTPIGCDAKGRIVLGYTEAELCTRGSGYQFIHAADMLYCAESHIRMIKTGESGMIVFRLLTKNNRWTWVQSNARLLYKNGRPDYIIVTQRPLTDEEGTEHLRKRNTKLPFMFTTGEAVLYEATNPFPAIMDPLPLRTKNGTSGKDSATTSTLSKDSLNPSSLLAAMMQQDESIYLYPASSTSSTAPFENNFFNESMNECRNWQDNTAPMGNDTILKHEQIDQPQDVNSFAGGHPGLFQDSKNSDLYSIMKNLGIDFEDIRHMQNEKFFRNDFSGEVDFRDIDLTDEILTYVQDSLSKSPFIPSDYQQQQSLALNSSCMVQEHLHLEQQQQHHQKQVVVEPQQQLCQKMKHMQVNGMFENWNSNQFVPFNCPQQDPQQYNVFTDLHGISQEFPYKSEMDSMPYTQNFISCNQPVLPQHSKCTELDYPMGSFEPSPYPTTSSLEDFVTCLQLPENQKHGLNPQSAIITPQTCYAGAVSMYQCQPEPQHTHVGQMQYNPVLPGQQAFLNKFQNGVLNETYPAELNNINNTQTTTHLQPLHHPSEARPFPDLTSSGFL
T20 sequence (P46098 24-478): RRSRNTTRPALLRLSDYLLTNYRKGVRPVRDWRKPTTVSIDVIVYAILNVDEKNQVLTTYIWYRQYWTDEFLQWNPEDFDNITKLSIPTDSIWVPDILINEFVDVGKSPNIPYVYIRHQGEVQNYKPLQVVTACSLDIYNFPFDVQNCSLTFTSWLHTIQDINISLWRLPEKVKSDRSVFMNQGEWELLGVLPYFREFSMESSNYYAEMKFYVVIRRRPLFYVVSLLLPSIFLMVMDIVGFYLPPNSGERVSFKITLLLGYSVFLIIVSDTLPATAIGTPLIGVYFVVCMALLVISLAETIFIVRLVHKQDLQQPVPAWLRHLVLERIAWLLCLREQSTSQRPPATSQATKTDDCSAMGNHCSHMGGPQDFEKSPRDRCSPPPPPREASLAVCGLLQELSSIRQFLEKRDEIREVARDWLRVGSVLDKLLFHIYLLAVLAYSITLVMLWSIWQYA
T5 sequence (Q6PL18 980-1092 limits assumed): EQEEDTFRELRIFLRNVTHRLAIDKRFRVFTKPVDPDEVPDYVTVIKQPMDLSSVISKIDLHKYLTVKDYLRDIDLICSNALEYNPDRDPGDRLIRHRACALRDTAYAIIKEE
T19 sequence (P31645 whole entry): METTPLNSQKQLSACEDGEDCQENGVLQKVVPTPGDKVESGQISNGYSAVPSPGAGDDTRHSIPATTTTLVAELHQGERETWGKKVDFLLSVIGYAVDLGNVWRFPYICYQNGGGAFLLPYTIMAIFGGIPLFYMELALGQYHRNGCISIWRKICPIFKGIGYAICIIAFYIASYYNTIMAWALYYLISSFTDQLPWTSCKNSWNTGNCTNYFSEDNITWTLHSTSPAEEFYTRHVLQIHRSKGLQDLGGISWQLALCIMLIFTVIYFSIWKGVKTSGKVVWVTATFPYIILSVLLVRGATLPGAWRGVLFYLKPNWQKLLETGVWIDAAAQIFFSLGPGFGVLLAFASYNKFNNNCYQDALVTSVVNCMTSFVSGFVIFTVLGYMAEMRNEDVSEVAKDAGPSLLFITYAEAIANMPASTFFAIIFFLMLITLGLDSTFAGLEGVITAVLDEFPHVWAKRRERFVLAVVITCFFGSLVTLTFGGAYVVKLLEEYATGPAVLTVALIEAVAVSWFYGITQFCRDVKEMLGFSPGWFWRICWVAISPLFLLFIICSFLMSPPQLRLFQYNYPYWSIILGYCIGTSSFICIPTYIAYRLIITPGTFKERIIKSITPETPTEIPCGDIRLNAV
T6 sequence (Q9H0E9 1099-1207 limits assumed): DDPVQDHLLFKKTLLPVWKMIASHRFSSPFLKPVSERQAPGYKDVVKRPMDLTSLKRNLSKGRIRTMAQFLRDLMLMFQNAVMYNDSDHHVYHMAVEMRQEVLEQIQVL
T10 sequence (P28222 whole entry): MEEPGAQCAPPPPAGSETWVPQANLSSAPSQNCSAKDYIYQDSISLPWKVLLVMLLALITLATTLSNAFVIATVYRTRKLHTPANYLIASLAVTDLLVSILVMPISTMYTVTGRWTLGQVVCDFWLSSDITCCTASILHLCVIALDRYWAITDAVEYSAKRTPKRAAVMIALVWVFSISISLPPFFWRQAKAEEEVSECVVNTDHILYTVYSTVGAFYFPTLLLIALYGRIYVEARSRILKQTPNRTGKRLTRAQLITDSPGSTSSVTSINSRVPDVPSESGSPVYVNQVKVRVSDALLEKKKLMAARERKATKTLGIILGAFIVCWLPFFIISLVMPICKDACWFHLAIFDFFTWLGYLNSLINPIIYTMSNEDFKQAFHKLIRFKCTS
T17 sequence (P22460 whole entry): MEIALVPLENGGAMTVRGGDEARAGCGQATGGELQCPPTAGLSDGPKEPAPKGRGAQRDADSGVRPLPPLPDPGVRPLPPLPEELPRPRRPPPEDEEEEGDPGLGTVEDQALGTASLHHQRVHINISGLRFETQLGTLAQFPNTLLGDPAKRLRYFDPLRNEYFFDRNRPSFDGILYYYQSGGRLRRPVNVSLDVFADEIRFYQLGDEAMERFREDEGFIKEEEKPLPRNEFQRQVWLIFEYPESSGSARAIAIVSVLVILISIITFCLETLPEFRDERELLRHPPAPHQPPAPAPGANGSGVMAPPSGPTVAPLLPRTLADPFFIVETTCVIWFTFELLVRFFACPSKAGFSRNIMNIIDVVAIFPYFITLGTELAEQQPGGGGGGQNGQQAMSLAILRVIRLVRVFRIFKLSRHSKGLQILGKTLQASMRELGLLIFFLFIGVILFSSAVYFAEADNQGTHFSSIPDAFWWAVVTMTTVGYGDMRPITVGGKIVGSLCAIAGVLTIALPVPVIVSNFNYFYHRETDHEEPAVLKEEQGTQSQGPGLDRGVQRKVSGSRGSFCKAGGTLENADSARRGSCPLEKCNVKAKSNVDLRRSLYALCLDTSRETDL
T12 sequence (P08172 whole entry): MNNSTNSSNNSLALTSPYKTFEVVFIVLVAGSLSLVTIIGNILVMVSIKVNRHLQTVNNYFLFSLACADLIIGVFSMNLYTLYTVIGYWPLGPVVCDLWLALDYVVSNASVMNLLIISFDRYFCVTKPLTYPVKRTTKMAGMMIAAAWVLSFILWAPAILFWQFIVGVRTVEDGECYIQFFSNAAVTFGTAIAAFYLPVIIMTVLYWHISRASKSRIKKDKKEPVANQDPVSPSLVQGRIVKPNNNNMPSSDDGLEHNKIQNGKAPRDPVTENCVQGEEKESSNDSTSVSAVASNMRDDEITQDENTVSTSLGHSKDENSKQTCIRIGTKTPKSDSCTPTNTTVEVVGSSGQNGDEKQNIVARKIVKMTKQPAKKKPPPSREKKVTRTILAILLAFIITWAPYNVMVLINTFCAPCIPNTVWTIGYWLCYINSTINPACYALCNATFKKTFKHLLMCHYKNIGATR
T4 sequence (Q92793 1085-1192 limits assumed): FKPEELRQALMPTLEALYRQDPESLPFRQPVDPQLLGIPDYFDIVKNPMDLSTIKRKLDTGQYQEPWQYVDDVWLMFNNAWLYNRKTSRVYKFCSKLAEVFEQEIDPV
T9 sequence (P51532 1453-1564 limits assumed): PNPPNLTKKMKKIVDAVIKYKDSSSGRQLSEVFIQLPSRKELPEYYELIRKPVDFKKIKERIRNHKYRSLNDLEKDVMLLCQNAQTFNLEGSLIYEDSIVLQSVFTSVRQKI

Cc1cc(-c2nc3ccccc3n2C[C@@H]2CCCN(C(=O)C3CCN(C(C)C)CC3)C2)cn(C)c1=O [Compound 31, (S)-5-(1-((1-(1-Isopropylpiperidine-4-carbonyl)piperidin-3-yl)methyl)-1H-benzo [d]imidazole-2-yl)-1,3-dimethylpyridin-2(1H)-one]
BRD4 BD1 FRET pIC50 (BRD4 BD1): 7.8 | fold selectivity (BRD4 BD1 over BRD4 BD2) (BRD4 BD1): 1000 fold | solubility (CAD aqueous solubility): ≥ 257 µg/mL | BRD2 BD2 TR-FRET pIC50 (BRD2 BD2): 5.4 | BRD3 BD1 TR-FRET pIC50 (BRD3 BD1 [1]): 7.7 | fold selectivity BRD3 BD1 over BD2 (BRD3 BD1 [1]; TR-FRET): 400 fold | BROMOscan pKd BRD3 BD1 (BRD3 BD1 [2]): 8.4 | fold selectivity BRD3 BD1 over BD2 (BRD3 BD1 [2]; BROMOscan): 400 fold | Kd (BRPF1): 15.8 µM | Kd (CREBBP): 20 µM | Kd (ATAD2A): > 31.6 µM | Kd (BRD8 BD2): > 31.6 µM | Kd (PBRM1 BD2): > 31.6 µM | Kd (PBRM1 BD5): > 31.6 µM | Kd (SMARCA4): > 31.6 µM | Papp [3]: < 0.3 ×10⁻⁶ cm/s | BioMAP immune-modulatory biomarker levels ([4]; 10 μM to 160 nM, MCP-1, IL-8, IL-1, IL-10, M-CSF, IL-6): decreases | BioMAP antiproliferative effects ([4]; 10 μM to 160 nM, human primary T cells, coronary artery smooth muscle cells, endothelial cells, fibroblasts): antiproliferative effects | BioMAP cytotoxicity ([4]; 10 μM, […], 630 nM, 160 nM): No cytotoxicity was observed | pXC50 5-HT1B Agonist (5-HT1B): < 4.0 | pXC50 Adenosine A2a Human Agonist (Adenosine A2a): < 4.0 | pXC50 M2 (CHRM2) Human Ag (M2 (CHRM2)): < 4.3 | pXC50 CB1 Agonist (CB1): < 4.0 | pXC50 5-HT2A Agonist (5-HT2A [5]): < 4.0 | pXC50 Aryl Hydrocarbon Receptor [6]: < 4.0 | pXC50 Alpha 1 nAChR Agonist (Alpha 1 nAChR): < 4.2 | pXC50 Kv1.5 (KCNA5) blocker (Kv1.5 (KCNA5)): < 4.3 | pXC50 hCav1_2 Blocker (hCav1_2): < 4.0 | pXC50 SERT blocker (SERT): < 4.0 | pXC50 5-HT3 antagonist (5-HT3): < 4.3 | pXC50 Alpha 1B antagonist (Alpha 1B): < 4.6 | pXC50 Histamine 1 antagonist (Histamine 1): < 4.6 | pXC50 5-HT2A antagonist (5-HT2A [7]): < 4.0 | BD1 domain selectivity over BD2 across the four isoforms (BET BD1; TR-FRET BRD2, BRD3, BRD4, BRDT): at least 400 fold | BET BD1 domain selectivity (BET BD1; depending on protein and assay format): 300–1000 fold | pXC50 hERG blocker (hERG): < 4.3 | pXC50 PXR Human Agonist (PXR): < 4.3
